Experimental data published in patent publication US20200016058A1, “HORNY LAYER FUNCTION IMPROVING AGENT” (Ajinomoto Co., Inc., priority 2017, published 2020).
Where a SMILES comes first, the peptide text is derived from it.

Columns and labels:
filaggrin = assay: Gene expression test using normal human epidermal keratinocytes (RT-PCR), filaggrin; format: cell-based; settings: Keratinocyte, 48 hours, relative value to control, read-out: FLG (filaggrin) gene expression amount
Description: (§1) Normal human epidermal keratinocytes (Kurabo Industries Ltd.) were cultured with HuMedia KG2 (Kurabo Industries Ltd.) at 37° C. and 5% CO2 under saturated vapor. Cells that have become confluent were seeded in a 6-well plate with a seeding density of 3.0×10^5 (cells/well).
(§2) For each evaluation sample, each D-amino acid adjusted in the culture medium so as to be 100 μM or 500 μM was used. On the next day of seeding, each evaluation sample was adjusted to be 100 μM or 500 μM, and each well culture medium was exchanged. Culturing was performed for 48 hours, RNA was extracted from the cells using RN easy mini kit (Qiagen), which was synthesized into cDNA using High-Capacity cDNA Reverse Transcription Kit with RNase Inhibitor (Thermo Fisher). With this cDNA as a template, a sample added group and a control group were compared with each other by the RT-PCR method (7500 fast system (Thermo Fisher)) to evaluate gene expression amounts of filaggrin, involucrin, loricrin, keratin 10, and transglutaminase 1. In Table 4, FLG, IVL, K10, LOR, and TGM indicate filaggrin, involucrin, keratin 10, loricrin, and transglutaminase 1, respectively.

involucrin = assay: Gene expression test using normal human epidermal keratinocytes (RT-PCR), involucrin; format: cell-based; settings: Keratinocyte, 48 hours, relative value to control, read-out: IVL (involucrin) gene expression amount
Description: as §1, §2

keratin 10 = assay: Gene expression test using normal human epidermal keratinocytes (RT-PCR), keratin 10; format: cell-based; settings: Keratinocyte, 48 hours, relative value to control, read-out: K10 (keratin 10) gene expression amount
Description: as §1, §2

transglutaminase 1 = assay: Gene expression test using normal human epidermal keratinocytes (RT-PCR), transglutaminase 1; format: cell-based; settings: 48 hours, relative value to control
Description: as §1, §2

[1] = test system: filaggrin, involucrin, loricrin, keratin 10, and transglutaminase 1; assay: Gene expression test using normal human epidermal keratinocytes, text summary over the target genes; format: cell-based; settings: 100 μM or 500 μM, summary of Table 4; for expression amounts of the respective target genes: all five target genes
Description: as §1, §2

laminin 332 = settings: reported in WO 2011/040082; cited from earlier work
loricrin = assay: Gene expression test using normal human epidermal keratinocytes (RT-PCR), loricrin; format: cell-based; settings: 48 hours, relative value to control
Description: as §1, §2

[2] = orally administered; cited filing; cited from earlier work
[3] = JP 2012-006870; determined only by the subjectivity of subjects; cited from earlier work
[4] = test system: filaggrin, involucrin, transglutaminase 1, keratin 10, and loricrin; settings: cited from earlier work

| SMILES | fold induction at 100 µM (filaggrin) | fold induction at 500 µM (filaggrin) | fold induction at 100 µM (involucrin) | fold induction at 500 µM (involucrin) | fold induction at 100 µM (keratin 10) | fold induction at 500 µM (keratin 10) | TGM (transglutaminase 1) gene expression amount (transglutaminase 1; 100 μM) | expression amounts of the respective target genes of filaggrin, involucrin, keratin 10, and transglutaminase 1 [1] | laminin 332 production promotion effect (laminin 332) | LOR (loricrin) gene expression amount (loricrin; 500 μM) | expression amounts of the respective target genes of filaggrin, involucrin, keratin 10, and loricrin [1] | LOR (loricrin) gene expression amount (loricrin; 100 μM) | TGM (transglutaminase 1) gene expression amount (transglutaminase 1; 500 μM) | expression amounts of the respective target genes [1] | TEWL value [2] | moisture retaining effect [3] | expression promotion action of moisture retention-related proteins such as filaggrin ([4]; applicant's assessment of the prior art) | expression of filaggrin, involucrin, transglutaminase 1, keratin 10, and loricrin ([4]; reported in WO 2014/175001 and JP 2012-232920) |
| --- | --- | --- | --- | --- | --- | --- | --- | --- | --- | --- | --- | --- | --- | --- | --- | --- | --- | --- |
| C[C@@H](N)C(=O)O [D-Ala, D-alanine] | 1.23 | 1.18 | 1.28 | 1.15 | 1.47 | 1.21 | 1.20 | increases | promote the production of laminin 332 |  |  |  |  |  |  |  |  |  |
| NC(=O)C[C@@H](N)C(=O)O [D-Asn, D-asparagine] |  | 1.55 |  | 1.34 |  | 1.21 |  |  |  | 1.80 | increases |  |  |  |  |  |  |  |
| N[C@H](CC(=O)O)C(=O)O [D-Asp, D-aspartic acid] | 1.35 | 1.45 | 1.49 | 1.42 | 2.43 | 2.1 | 1.13 |  | not expressed | 2.10 |  | 2.34 | 1.20 | increases |  |  |  |  |
| N[C@H](CCC(=O)O)C(=O)O [D-Glu, D-glutamic acid] |  | 1.69 |  | 1.34 |  | 1.25 |  |  |  | 2.07 |  |  | 1.13 | increases | reduces |  |  |  |
| NCCCC[C@@H](N)C(=O)O [D-Lys, D-lysine] | 1.48 | 1.29 | 1.27 | 1.72 | 1.35 | 2.16 | 1.12 |  |  | 1.39 |  | 2.02 |  | increases |  | expressed |  |  |
| N[C@H](Cc1ccccc1)C(=O)O [D-Phe, D-phenylalanine] |  | 1.52 |  | 1.32 |  | 1.32 |  |  |  | 1.78 |  |  | 1.26 | increases |  |  |  |  |
| N[C@H](Cc1c[nH]c2ccccc12)C(=O)O [D-Trp, D-tryptophan] | 1.77 | 3.3 | 2.05 | 2.43 | 2.44 | 3.43 | 1.42 |  |  | 3.45 |  | 1.71 | 1.50 | increases |  |  |  |  |
| CC[C@H](C)[C@@H](N)C(=O)O [D-allo-Ile, D-allo-isoleucine] | 1.3 | 1.21 | 1.18 | 1.13 | 1.31 | 1.41 |  |  |  |  |  | 1.31 | 1.27 | increases |  |  |  |  |
| O=C(O)[C@H]1C[C@H](O)CN1 [D-hydroxyproline, reference compound] |  |  |  |  |  |  |  |  | promote the production of laminin 332 |  |  |  |  |  |  |  |  |  |
| NCCCC[C@H](N)C(=O)O [L-lysine, reference compound] |  |  |  |  |  |  |  |  |  |  |  |  |  |  |  | expressed |  |  |
| NCC(=O)N1CCC[C@H]1C(=O)O [glycylproline] (H-Gly-Pro-OH) |  |  |  |  |  |  |  |  |  |  |  |  |  |  |  |  | weak | promoted |
